Measurements taken from patent publication US10350216B2, “Methods of treating, preventing and diagnosing leukemia and other blood diseases and disorders” (The Trustees of Columbia University in the City of New York, priority 2013, dated 2019).

Key:
βcat(ex3)osb mice [1] = test: DBZ (γ-secretase inhibitor) treatment of βcat(ex3)osb mice: blood counts, flow cytometry, histology, survival; assay type: in vivo
Procedure: (§1) […] DBZ is cell-permeable, selective, nontransition sate and noncompetitive inhibitor of the γ-secretase complex. DBZ was synthesized to greater than 99.9% purity as assessed by LC/MS (Syncom) and suspended in a 0.5% Methocel E4M (wt/vol, Colorcon) and 0.1% (vol/vol) Tween-80 (Sigma) solution (van Es et al., 2005). Immediately before intraperitoneal injection, DBZ was sonicated for 2 minutes to achieve a homogenous suspension.
(§2) For hematological measurements, blood was collected by cardiac puncture. Peripheral blood cell counts were performed on a FORCYTE Hematology Analyzer (Oxford Science Inc.). For morphological assessment, peripheral blood smears were stained with Wright-Giemsa stain (Sigma-Aldrich) for 10 minutes followed by rinsing in dH2O for 3 minutes. Images were taken using a 60× objective on a Leica microscope outfitted with camera.
Freshly isolated bone marrow cells and spleen cells were resuspended in flow-staining buffer (PBS plus 2% FBS) and the primary conjugated antibodies were added. After 30 minutes incubation at 4° C., the cells were then washed twice before flow cytometry analysis. The following monoclonal antibodies conjugated with fluorescein isothiocyanate (FITC), Allophycocyanin (APC) phycoerythrin (PE), PE-Cy7, APC-CY7, Pacific Blue, and Alexa 700 were used: CD117 (c-kit; 2B8), Sca-1 (D7), Mac-1α (M1/70), Gr-1(RB6-8C5), TER-119, (Ly-76) B220 (CD45R), CD19 (ID3), IgM (R6-60.2), CD3 (17A2), CD4 (RM4-5), CD8a (53-6.7), CD34 (RAM34), CD45 (30-F11), CD31 (MEC 13.3), CD16/CD32 (FcγRII/III; 2.4G2), CD135 (A2F10.1), CD150 (9D1), CD71 (C2), CD45.2 (104), CD45.1 (A20), F4/80, non-phospho (Active) β-Catenin (S33/S37/T41) antibody, IL-7Rα (SB199), Jagged-1 (C-20) and (Cell Signaling; D13A1). Seven-color flow cytometry acquisition was performed using a LSR II flow cytometer (Becton Dickinson) and analysis using FLO-JO software (Treestar, Inc). Cells were gated for size, shape and granularity using forward and side scatter parameters. The positive populations were identified as cells that expressed specific levels of fluorescence activity above the nonspecific auto fluorescence of the isotype control. Nonspecific binding was reduced by preincubation with unconjugated (2.4G2). Osteoblasts from MDS/AML patients or healthy subjects were identified as CD34−/Lin−OCN+ cells, (OCN: osteocalcin an osteoblast-specific protein used for isolation of live osteoblastic cells). For Flow sorting bone marrow, spleen and thymus cells were resuspended in flow staining buffer at 1×10^6/ml and labeled with the appropriate conjugated antibodies. After 30 minutes incubation, cells were washed twice using flow buffer. Flow sorting was performed using FACSAria (Becton Dickinson). Sorted populations were subsequently cultured or stored in RLT buffer at −80° C. for later extraction of RNA. Fluorescence intensity plots were presented in log scale. All flow cytometry data were representative of five independent experiments.
Bone marrow biopsies were fixed overnight in 10% neutral formalin solution, decalcified embedded in paraffin and sectioned at 5 μm per standard laboratory protocol. Sections were stained for β-catenin using a monoclonal antibody (1:1000, BD Transduction Lab) or for Runx2 using a polyclonal antibody (1:100 dilution, Santa Cruz) on an automated Ventana Discovery XT (Tuscon, Ariz.) platform according to manufacturer's instructions. Immune complexes formed were developed using a DAB Map Kit (Ventana, Tuscon, Ariz.). Murine long bones, spleen and liver were collected from one month old mice, fixed overnight in 10% neutral formalin solution, embedded in paraffin, sectioned at 5 μm, and stained with haematoxylin and eosin (H&E). For immunohistochemistry, specimens were incubated with CD-117 (C-kit; Abeam), CD13 (Santa Cruz) or Myeloperoxidase (MPO) antibodies after an antigen retrieval step and blocking of endogenous peroxidase with 3% H2O2. […]

βcat(ex3)osb mice [2] = test: Six-week treatment of βcat(ex3)osb mice with anti-Jagged1 antibody or DBZ (Example 17); assay type: in vivo
Procedure: The following endpoints are analyzed: survival, complete hematopoietic profile in the marrow, leukemia presence in peripheral blood, bone marrow, spleen and liver, potential end organ toxicity, and gene expression profiling of Notch targets Hes1, Hes5, Hey1, and Hey2, and the Hes1 targets, Cebpα and Pu.1.

wild type mice = test: DBZ treatment of wild type mice: peripheral blood counts and bone marrow cellularity; assay type: in vivo, mouse; settings: DBZ 2 μmol/kg body weight daily for 10 days
Procedure: as §1
as §2, with “camera. […]” for “camera.”
Hematological measurements, peripheral blood morphology, flow cytometry, PCR, and histological analysis were performed as described in Example 1.

[3] = test system: primary, calvaria-derived osteoblasts; test: Real-time PCR of Jagged-1 and Magp-2 in primary osteoblasts treated with Wnt3a; assay type: cell-based, mouse; settings: Wnt3a 50 ng/ml for 24 hours, versus vehicle
Procedure: (§3) In FIGS. 57B and C, the vehicle treated is represented by the left hand bar and the Wnt3a treated is represented by the right hand bar. n=4 replicates, *p<0.05 versus vehicle. Results are mean±SD.
(§4) Total RNA was isolated from LSK or hematopoietic cells using RNAeasy micro Plus kit (Quiagen). Total RNA from long bones was isolated using TRIzol reagent. Quantitative real-time PCR was performed using the SYBR Green Master Mix (Bio-Rad) as previously described (Rached et al., 2010a). β-Actin was used as endogenous control. Gene expression in LT-HSCs, ST-HSCs and MPPs was performed using the Power Syber Green Cells-to-CT kit (Ambion Life Technologies)
For flow cytometry analysis, osteoblasts were identified from the digested bone samples as a population of CD34^−Lin^−Ocn^+ cells, where OCN (osteocalcin) is an osteoblast-specific, non-nuclear protein commonly used for isolation of live osteoblastic cells (Eghbali-Fatourechi et al., 2005; Rubin et al., 2011; Manavalan et al., 2012). For experiments in mice, all gene expression studies were repeated using calvaria-derived cells a population rich in committed osteoblast progenitors and routinely used as osteoblast-representative. Primary murine osteoblasts were prepared from calvaria of 2 day-old pups as previously described (Ghosh-Choudhury et al., 1994; Rached et al., 2010b). […]

[4] = test system: LSK cells cultured in the presence of primary osteoblasts; test: Real-time PCR of Hes1, Pu.1 and CEBPα in LSK+ population co-cultured with primary osteoblasts and treated with Wnt3a; assay type: cell-based, mouse; settings: Wnt3a 50 ng/ml for 24 hours, co-culture with primary osteoblasts
Procedure: as §3, §4

[5] = βcat(ex3)osb mice, 10 days DBZ, bone marrow and spleen
[6] = βcat(ex3)osb mice, DBZ 2 μmol/kg body weight daily for 10 days
[7] = βcat(ex3)osb mice, six weeks treatment

`C[C@H](NC(=O)Cc1cc(F)cc(F)c1)C(=O)NC1C(=O)N(C)c2ccccc2-c2ccccc21` (stereo partly drawn) [DBZ, (2S)-2-[2-(3,5-difluorophenyl)-acetylamino]-N-(5-methyl-6-oxo-6,7-dihydro-5H-dibenzo[b,-d]azepin-7-yl)-propionamide] was tested, and the “Toxic effects (intestinal architecture, goblet cell metaplasia, PAS staining)” value (βcat(ex3)osb mice [1]; mice treated 10 days with DBZ, intestine) was “without any toxic effects”, the “Survival (Kaplan-Meier)” value (βcat(ex3)osb mice [1]; βcat(ex3)osb mice treated with DBZ versus vehicle) was “increased survival” and the “Blasts and hypersegmented neutrophils in the blood; infiltration with immature and atypical myeloid cells and atypical micro-megakaryocytes in bone marrow and spleen” value (βcat(ex3)osb mice [1]; βcat(ex3)osb mice, 10 days DBZ) was “not observed”. For the same compound, the Bone marrow cellularity (βcat(ex3)osb mice [1]; βcat(ex3)osb mice, 10 days DBZ) was “not affected”, the “LSK and lymphoid-biased progenitors in the bone marrow and LSK/FcgRII/III subset of myeloid progenitors in spleen and bone marrow” value (βcat(ex3)osb mice [1]; βcat(ex3)osb mice, 10 days DBZ) was “returned to normal levels” and the Liver histology (βcat(ex3)osb mice [1]; βcat(ex3)osb mice, 10 days DBZ) was “appeared normal”. The “Myeloperoxidase staining in bone marrow, spleen and liver” value (βcat(ex3)osb mice [1]; βcat(ex3)osb mice, 10 days DBZ) was “identical to that of wild type animals”, the “Compromised B-lymphopoiesis” value (βcat(ex3)osb mice [1]; [5]) was “partially rescued” and the “Defects in the myeloid lineage, erythroid cells, LSK and LT-HSCs populations” value (βcat(ex3)osb mice [1]; [5]) was “reversed”. The Osteopetrotic phenotype (βcat(ex3)osb mice [1]; βcat(ex3)osb mice, 10 days DBZ, long bone sections) was “not affected”, the “Anemia, peripheral monocytosis, neutrophilia and lymphocytopenia” value (βcat(ex3)osb mice [1]; βcat(ex3)osb mice, 10 days DBZ, peripheral blood) was “reversed” and the “BA (basophils)” value (βcat(ex3)osb mice [1]; [6]) was 0.67 ± 0.7%. For the same compound, the “BM cell per femur” value (βcat(ex3)osb mice [1]; [6]) was 18.6 ± 3.5 10^5, the “EO (eosinophils)” value (βcat(ex3)osb mice [1]; [6]) was 1.87 ± 1.6% and the HB (βcat(ex3)osb mice [1]; [6]) was 11.2 ± 0.9 g/dL. The HCT (βcat(ex3)osb mice [1]; [6]) was 36.75 ± 3.2%, the “LY (lymphocytes)” value (βcat(ex3)osb mice [1]; [6]) was 49.76 ± 4.3% and the “MO (monocytes)” value (βcat(ex3)osb mice [1]; [6]) was 7.46 ± 1.2%. The NE (βcat(ex3)osb mice [1]; [6]) was 42.21 ± 4.8%, the Platelet (βcat(ex3)osb mice [1]; [6]) was 650 ± 113.1 10^3/μl and the RBC (βcat(ex3)osb mice [1]; [6]) was 8.06 ± 0.5 ×10^6/μl. The WBC (βcat(ex3)osb mice [1]; [6]) was 3.1 ± 0.5 ×10^3/μl, the “Toxic effect on the intestines” value (βcat(ex3)osb mice [2]; mouse, in vivo) was “no toxic effect” and the “Anemia, peripheral monocytosis, neutrophilia and lymphocytopenia and defects in the myeloid lineage, erythroid cells, LSK and LT-HSCs populations in the bone marrow” value (βcat(ex3)osb mice [2]; [7]) was “reversal”. The “Expression of Notch targets Hes1, Hes5, Hey1, and Hey2, and the Hes1 targets, Cebpα and Pu.1” value (βcat(ex3)osb mice [2]; [7]) was “decrease”, the “Invasion of myeloid cells” value (βcat(ex3)osb mice [2]; [7]) was “no invasion” and the “LSK and lymphoid-biased progenitors in the bone marrow and LSK/FcgRII/III subset of myeloid progenitors in spleen and bone marrow” value (βcat(ex3)osb mice [2]; [7]) was “return to normal levels”. For the same compound, the “Myeloperoxidase staining in bone marrow, spleen and liver” value (βcat(ex3)osb mice [2]; [7]) was “identical to that of control animals”, the Survival (βcat(ex3)osb mice [2]; [7]) was “increased survival” and the “BA (basophils)” value (wild type mice) was 0.5 ± 0.2%. The “BM cell per femur” value (wild type mice) was 71.5 ± 4.3 10^5, the “EO (eosinophils)” value (wild type mice) was 1.55 ± 0.2% and the HB (wild type mice) was 12.8 ± 0 g/dL. The HCT (wild type mice) was 45.90 ± 2.5%, the “LY (lymphocytes)” value (wild type mice) was 78.54 ± 3.2% and the “MO (monocytes)” value (wild type mice) was 5.01 ± 0.6%. For the same compound, the NE (wild type mice) was 14.41 ± 3.2%, the Platelet (wild type mice) was 1119.5 ± 68.5 10^3/μl and the WBC (wild type mice) was 3.54 ± 0.5 ×10^3/μl.

In the case of Wnt3a, the “Expression of Jagged-1 and Magp-2” value [3] was “upregulated” and the “Notch signaling in LSK cells (Hes1, Pu.1 and CEBPα expression)” value [4] was “stimulated”.
